Data published in patent publication US5451582A, “Benzodiazepine derivatives, compositions containing them and their use in therapy” (Merck Sharp & Dohme Ltd., priority 1992, dated 1995).

Key:
CCK receptor (brain) = molecular target: T1, CCK receptor (brain) (Cavia porcellus, UniProt H0VZC5); assay: CCK Receptor Binding (Brain), inhibition of 125I-CCK-8 binding; design: species or system guinea pig (male Hartley); settings: guinea pig cortex membranes; 50 pM 125I-CCK-8; pH 6.5; 25° C., 2 hours
T1 construct: the cortex was removed and homogenized in 25 mL ice-cold 0.32M sucrose; from tissue; host or cells: guinea pig cerebral cortex P2 membranes (male Hartley)
T1 sequence (H0VZC5 1-426): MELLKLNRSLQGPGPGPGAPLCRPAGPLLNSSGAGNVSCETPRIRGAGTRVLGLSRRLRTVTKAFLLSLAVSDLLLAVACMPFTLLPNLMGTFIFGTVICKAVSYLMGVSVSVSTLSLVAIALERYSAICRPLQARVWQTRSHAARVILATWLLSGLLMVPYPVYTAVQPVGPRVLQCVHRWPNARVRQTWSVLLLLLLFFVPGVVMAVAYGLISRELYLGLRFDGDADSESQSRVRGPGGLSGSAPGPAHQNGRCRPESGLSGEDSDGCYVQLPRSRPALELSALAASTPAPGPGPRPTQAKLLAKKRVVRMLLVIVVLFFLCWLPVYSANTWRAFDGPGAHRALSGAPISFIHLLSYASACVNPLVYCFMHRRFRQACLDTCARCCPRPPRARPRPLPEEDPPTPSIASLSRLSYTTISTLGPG
Procedure: 2. CCK Receptor Binding (Brain)
CCK-8 sulphated was radiolabelled and the binding was performed according to the description for the pancreas method with minor modifications.
Male Hartley guinea pigs (300-500 g) were sacrificed by decapitation and the cortex was removed and homogenized in 25 mL ice-cold 0.32M sucrose. The homogenates were centrifuged at 1000 g for 10 minutes and the resulting supernatant was recentrifuged at 20,000 g for 20 minutes. The P2 pellet was resuspended in binding assay buffer (20 mM HEPES, 5 mMMgCl2, 0.25 ml/ml bacitracin, 1 mM EGTA pH 6.5 at 25° C.), using a Teflon (trademark) homogenizer (5 strokes at 500 rpm) to give a final concentration of […] original wet weight/1.2 ml buffer. For the binding assay, 50 μl of buffer (for total binding) or unlabelled CCK-8 sulphated to give a final concentration of 1 μM (for nonspecific binding) or the compounds of Formula I (for determination of inhibition of ^125 I-CCK-8 binding) and 50 μl of 500 pM ^125 I-CCK-8 (i.e. final concentration of 50 pM) were added to 400 μl of the membrane suspensions in microfuge tubes. All assays were run in duplicate. The reaction mixtures were incubated at 25° C. for 2 hours and then the reaction was terminated by rapid filtration (Brandell 24 well cell harvester) on Whatman GF/C filters with 3×5 ml washes of cold 100 mM NaCl. The radioactivity on the filters was counted with a LKB gamma counter.
The preferred compounds of Formula I are those which produced dose-dependent inhibition of specific ^125 I-CCK-8 binding as defined as the difference between total and non-specific (i.e. in the presence of 1 μM CCK) binding.
Drug displacement studies were performed with at least 10 concentrations of compounds of Formula I and the IC50 values were determined by regression analysis IC50 refers to the concentration of the compound required to inhibit 50% of specific binding of ^125 I-CCK-8.

CCK receptor (pancreas) = molecular target: T2, CCK receptor (pancreas) (Rattus norvegicus, UniProt P30551); assay: CCK Receptor Binding (Pancreas), inhibition of 125I-CCK-8 binding; design: species or system rat (male Sprague-Dawley); settings: rat pancreas membranes; 50 pM 125I-CCK-8; pH 6.5; 25° C., 2 hours
T2 construct: The whole pancreas was dissected free of fat tissue and was homogenized; from tissue; host or cells: rat pancreas membranes (male Sprague-Dawley)
T2 sequence (P30551 1-444): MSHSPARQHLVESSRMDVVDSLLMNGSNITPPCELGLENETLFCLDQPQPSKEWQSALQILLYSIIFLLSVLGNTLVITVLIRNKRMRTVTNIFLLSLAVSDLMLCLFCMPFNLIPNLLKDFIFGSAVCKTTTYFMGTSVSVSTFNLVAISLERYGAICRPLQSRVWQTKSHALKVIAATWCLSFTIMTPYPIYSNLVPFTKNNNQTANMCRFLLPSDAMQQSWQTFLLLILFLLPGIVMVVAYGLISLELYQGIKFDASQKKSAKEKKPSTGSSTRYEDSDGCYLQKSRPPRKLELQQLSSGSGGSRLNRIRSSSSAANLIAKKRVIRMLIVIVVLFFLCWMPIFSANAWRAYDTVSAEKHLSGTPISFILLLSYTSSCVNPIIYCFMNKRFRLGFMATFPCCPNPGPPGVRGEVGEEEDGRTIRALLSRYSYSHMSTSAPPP
Procedure: 1. CCK Receptor Binding (Pancreas)
CCK-8 sulphated was radiolabelled with ^125 I-Bolton Hunter reagent (2000 Ci/mmole). Receptor binding was performed according to Chang and Lotti (Proc. Natl. Acad. Sci. 83, 4923-4926, 1986) with minor modifications.
Male Sprague-Dawley rats (150-200 g) were sacrificed by decapitation. The whole pancreas was dissected free of fat tissue and was homogenized in 25 volumes of ice-cold 10 mM N-2-hydroxyethyl-piperazine-N'-2-ethane sulphonic acid (HEPES) buffer with 0.1% soya bean trypsin inhibitor (pH 7.4 at 25° C.) with a Kinematica Polytron. The homogenates were centrifuged at 47,800 g for 10 min. Pellets were resuspended in 10 volumes of binding assay buffer (20 mM (HEPES)), 1 mM ethylene glycol-bis-(β-aminoethylether-N,N'-tetraacetic acid) (EGTA), 5 mM MgCl2, 150 mM NaCl, bacitracin 0.25 ml/ml, soya bean trypsin inhibitor 0.1 ml/ml, and bovine serum albumin 2 ml/ml pH 6.5 at 25° C.) using a Teflon (trademark) homogenizer, 15 strokes at 500 rpm. The homogenate was further diluted in binding assay buffer to give a final concentration of 0.5 ml original wet weight/1 ml buffer. For the binding assay, 50 μl of buffer (for total binding) or unlabelled CCK-8 sulphated to give a final concentration of 1 μM (for nonspecific binding) or the compounds of Formula I (for determination of inhibition of ^125 I-CCK-8 binding) and 50 μl of 500 pM ^125 I-CCK-8 (i.e. 50 pM final concentration) were added to 400 μl of the membrane suspensions in microfuge tubes. All assays were run in duplicate. The reaction mixtures were incubated at 25° C. for 2 hours and the reaction terminated by rapid filtration (Brandell 24 well cell harvester) over Whatman GF/C filters, washing 3×4 mls with ice-cold 100 Mm NaCl. The radioactivity on the filters was counted with a LKB gamma counter.
The preferred compounds of Formula I are those which produced dose-dependent inhibition of specific ^125 I-CCK-8 binding as defined as the difference between total and non-specific (i.e. in the presence of 1 μM CCK) binding. […]

IC50 (CCK receptor (brain)) [nM] | IC50 (CCK receptor (pancreas)) [nM] | Structure (SMILES)
104 | > 3000 | CC1=NC(NC(=O)Nc2cccc(-c3nn[nH]n3)c2)C(=O)N(C)c2ccccc21 (racemic) [Example 1, N-[3(R,S)-2,3-Dihydro-1,5-dimethyl-2-oxo-1H-1,4-benzodiazepin-3-yl]N'-[3-tetrazol-5-ylphenyl]urea]
17 | 600 | CC(C)CN1C(=O)C(NC(=O)Nc2cccc(-c3nn[nH]n3)c2)N=C(C(C)C)c2ccccc21 (racemic) [Example 2, N-[3(R,S)-2,3-Dihydro-1-(2-methylpropyl)-2-oxo-5-(2-propyl) -1H-1,4-benzodiazepin-3-yl]N'-[3-tetrazol-5-ylphenyl]urea]
32 | 612 | CC(C)CN1C(=O)C(NC(=O)Nc2cccc(C(=O)NS(C)(=O)=O)c2)N=C(C(C)(C)C)c2ccccc21 (racemic) [Example 3, N-[3(R,S)-2,3-Dihydro-5-(1,1-dimethylethyl)-1-(2-methylpropyl) -2-oxo-1H-1,4-benzodiazepin-3yl]N'-(3-(methylsulphonylaminocarbonyl)phenyl]urea]
